The values that follow are results of earlier work, collected in EP0984012A2, “Nitric oxide releasing oxindole prodrugs with analgesic and anti-inflammatory properties” (Pfizer Products Inc., priority 1998, dated 2000).

For series [1] the following is noted: administered on both an acute and a chronic basis; versus parent NSAID.
The conditions of series [2]: animal models of acute and chronic inflammation; versus parent NSAID.
In series [3] the test system is experimental gastric ulcers. The following applies: rat, daily treatment.

As for `CC(C(=O)OCCCCO[N+](=O)[O-])c1ccc(-c2ccccc2)c(F)c1` (stereo not drawn) [flurbiprofen nitroxybutylester], the gastric injury result in series [1] is “markedly less gastric injury than that produced by their parent NSAIDs”. Moreover, in the series on small intestine (in vivo), the mitochondrial damage entry is “associated with mitochondrial damage in vivo”. Besides, in the series with small intestine (rats, versus flurbiprofen), the “macroscopic damage in the small intestine” value is recorded as “significantly less macroscopic damage in the small intestine than flurbiprofen”. In series [2], the anti-inflammatory activity entry is given as “comparable to that of their parent NSAIDs”.

For `O=[N+]([O-])OCC(CO[N+](=O)[O-])O[N+](=O)[O-]` [glyceryl trinitrate], the “healing of experimental gastric ulcers” value in series [3] was “accelerated”.

Take `O=C(Cc1ccccc1Nc1c(Cl)cccc1Cl)OCCCCO[N+](=O)[O-]` [nitrofenac, diclofenac-4-nitroxybutylester]: the gastric injury entry in series [1] was “markedly less gastric injury than that produced by their parent NSAIDs”. In addition, the “healing of experimental gastric ulcers” value in series [3] was “accelerated”. Further, in series [2], the anti-inflammatory activity entry is on record as “comparable to that of their parent NSAIDs”.

Turning to `COc1ccc2cc(CCC(C)=O)ccc2c1` [nabumetone], the “healing of experimental gastric ulcers” value in series [3] is given as “no effect”.

For the compound `CC(C(=O)OCCCCO[N+](=O)[O-])c1cccc(C(=O)c2ccccc2)c1` (stereo not drawn) [ketoprofen nitroxybutylester], the gastric injury result in series [1] was “markedly less gastric injury than that produced by their parent NSAIDs”. The anti-inflammatory activity entry in series [2] is on record as “comparable to that of their parent NSAIDs”.

On to `O=C(O)Cc1ccccc1Nc1c(Cl)cccc1Cl` [diclofenac], for which the “healing of experimental gastric ulcers” value in series [3] is “no effect”.
